Results: patent publication US20230002359A1, “PESTICIDALLY ACTIVE FUSED BICYCLIC HETEROAROMATIC COMPOUNDS” (priority 2019, published 2023)

Tests used:
Type in all cases: in vivo
[1] = test system: Spodoptera littoralis (Egyptian Cotton Leaf Worm); test: Example B7: Spodoptera littoralis (Egyptian cotton leaf worm), cotton leaf discs sprayed, L1 larvae; conditions: foliar, 72 h, application rate of 200 ppm, 3 days after infestation, L1 larvae, read-out: control in at least one of the three categories (mortality, anti-feedant effect, or growth inhibition)
Procedure: Cotton leaf discs were placed onto agar in 24-well microtiter plates and sprayed with aqueous test solutions prepared from 10′000 ppm DMSO stock solutions. After drying the leaf discs were infested with five L1 larvae. The samples were assessed for mortality, anti-feeding effect, and growth inhibition in comparison to untreated samples 3 days after infestation. Control of Spodoptera littoralis by a test sample is given when at least one of the categories mortality, anti-feedant effect, and growth inhibition is higher than the untreated sample.

[2] = test system: Diabrotica Balteata (Corn Root Worm); test: Example B1: Diabrotica balteata (corn root worm), maize sprouts sprayed, L2 larvae; conditions: 96 h, application rate of 200 ppm, 4 days after infestation, L2 larvae, read-out: control in at least one of the two categories (mortality or growth inhibition)
Summary of the method: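 Maize sprouts on agar were sprayed with aqueous test solutions made from 10′000 ppm DMSO stocks, dried, then infested with 6 to 10 L2 larvae per well. Mortality and growth inhibition were scored against untreated samples 4 days after infestation.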

[3] = test system: Chilo suppressalis (Striped Rice Stemborer); test: Example B3: Chilo suppressalis (striped rice stemborer), artificial diet, L2 larvae; conditions: 144 h, application rate of 200 ppm, 6 days after infestation, L2 larvae, read-out: control in at least one of the three categories (mortality, anti-feedant effect, or growth inhibition)
Summary of the method: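 Scoring covers mortality, anti-feedant effect and growth inhibition at 6 days post-infestation, relative to untreated diet, with activity defined as at least one category above untreated. Test solutions were aqueous, made from 10'000 ppm DMSO stocks, and applied to artificial diet before drying and infestation with L2 larvae.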

[4] = test system: Plutella xylostella (Diamond Back Moth); test: Example B4: Plutella xylostella (diamond back moth), artificial diet, eggs, 24-well; conditions: 192 h, application rate of 200 ppm, 8 days after infestation, eggs, read-out: control in at least one of the two categories (mortality or growth inhibition)
Procedure: 24-well microtiter plates with artificial diet were treated with aqueous test solutions prepared from 10′000 ppm DMSO stock solutions by pipetting. After drying, Plutella eggs were pipetted through a plastic stencil onto a gel blotting paper and the plate was closed with it. The samples were assessed for mortality and growth inhibition in comparison to untreated samples 8 days after infestation.

CC(c1nccnc1-c1ncccn1)N(CC1CC1)c1ncnc2c(Br)cc(C(F)(F)F)cc12 (centres unmarked) [P.99, 8-bromo-N-(cyclopropylmethyl)-N-[1-(3-pyrimidin-2-ylpyrazin-2-yl)ethyl]-6-(trifluoromethyl)quinazolin-4-amine]
≥ 80%: percent control (mortality, anti-feedant effect or growth inhibition) at 200 ppm [1] | percent control (mortality or growth inhibition) at 200 ppm [2] | percent control (mortality, anti-feedant effect or growth inhibition) at 200 ppm [3] | percent control (mortality or growth inhibition) at 200 ppm [4]

CC(c1nccnc1-c1ncccn1)N(C)c1ncnc2c(Cl)cc(C(F)(F)F)cc12 (centres unmarked) [P.100, 8-chloro-N-methyl-N-[1-(3-pyrimidin-2-ylpyrazin-2-yl)ethyl]-6-(trifluoromethyl)quinazolin-4-amine]
≥ 80%: percent control (mortality, anti-feedant effect or growth inhibition) at 200 ppm [1] | percent control (mortality or growth inhibition) at 200 ppm [2] | percent control (mortality, anti-feedant effect or growth inhibition) at 200 ppm [3] | percent control (mortality or growth inhibition) at 200 ppm [4]

CC(Nc1ncnc2c(Cl)cc(C(F)(F)F)cc12)c1nccnc1-c1ncccn1 (centres unmarked) [P.101, 8-chloro-N-[1-(3-pyrimidin-2-ylpyrazin-2-yl)ethyl]-6-(trifluoromethyl)quinazolin-4-amine]
≥ 80%: percent control (mortality, anti-feedant effect or growth inhibition) at 200 ppm [1] | percent control (mortality or growth inhibition) at 200 ppm [2] | percent control (mortality, anti-feedant effect or growth inhibition) at 200 ppm [3] | percent control (mortality or growth inhibition) at 200 ppm [4]

CC(c1nccnc1-n1nccn1)N(C)c1ncnc2c(Cl)cc(C(F)(F)F)cc12 (centres unmarked) [P.102, 8-chloro-N-methyl-N-[1-[3-(triazol-2-yl)pyrazin-2-yl]ethyl]-6-(trifluoromethyl)quinazolin-4-amine]
≥ 80%: percent control (mortality, anti-feedant effect or growth inhibition) at 200 ppm [1] | percent control (mortality or growth inhibition) at 200 ppm [2] | percent control (mortality, anti-feedant effect or growth inhibition) at 200 ppm [3] | percent control (mortality or growth inhibition) at 200 ppm [4]

CC(c1nccnc1-n1nccn1)N(C)c1ncnc2c(C(F)(F)F)cc(C(F)(F)F)cc12 (centres unmarked) [P.103, N-methyl-N-[1-[3-(triazol-2-yl)pyrazin-2-yl]ethyl]-6,8-bis(trifluoromethyl)quina-zolin-4-amine]
≥ 80%: percent control (mortality, anti-feedant effect or growth inhibition) at 200 ppm [1] | percent control (mortality or growth inhibition) at 200 ppm [2] | percent control (mortality, anti-feedant effect or growth inhibition) at 200 ppm [3] | percent control (mortality or growth inhibition) at 200 ppm [4]

CC(c1nccnc1-n1nccn1)N(C)c1ncnc2c(Br)cc(C(F)(F)F)cc12 (centres unmarked) [P.104, 8-bromo-N-methyl-N-[1-[3-(triazol-2-yl)pyrazin-2-yl]ethyl]-6-(trifluoromethyl)quinazolin-4-amine]
≥ 80%: percent control (mortality, anti-feedant effect or growth inhibition) at 200 ppm [1] | percent control (mortality or growth inhibition) at 200 ppm [2] | percent control (mortality, anti-feedant effect or growth inhibition) at 200 ppm [3] | percent control (mortality or growth inhibition) at 200 ppm [4]

CC(c1nccnc1-n1nccn1)N(C)c1ncnc2c(C(F)(F)F)cc(Br)cc12 (centres unmarked) [P.105, 6-bromo-N-methyl-N-[1-[3-(triazol-2-yl)pyrazin-2-yl]ethyl]-8-(trifluoromethyl)quinazolin-4-amine]
≥ 80%: percent control (mortality, anti-feedant effect or growth inhibition) at 200 ppm [1] | percent control (mortality or growth inhibition) at 200 ppm [2] | percent control (mortality, anti-feedant effect or growth inhibition) at 200 ppm [3] | percent control (mortality or growth inhibition) at 200 ppm [4]

CC(c1nccnc1-c1ncccn1)N(CC1CC1)c1ncnc2c(C(F)(F)F)cc(C(F)(F)F)cc12 (centres unmarked) [P.108, N-(cyclopropylmethyl)-N-[1-(3-pyrimidin-2-ylpyrazin-2-yl)ethyl]-6,8-bis(trifluoromethyl)quina-zolin-4-amine]
≥ 80%: percent control (mortality, anti-feedant effect or growth inhibition) at 200 ppm [1] | percent control (mortality or growth inhibition) at 200 ppm [2] | percent control (mortality, anti-feedant effect or growth inhibition) at 200 ppm [3] | percent control (mortality or growth inhibition) at 200 ppm [4]

CC(Nc1ncnc2c(C(F)(F)F)cc(C(F)(F)F)cc12)c1nccnc1-c1ccc(OC(F)F)cn1 (centres unmarked) [P.109, N-[1-[3-[5-(difluoromethoxy)-2-pyridyl]pyrazin-2-yl]ethyl]-6,8-bis(trifluoromethyl)quina-zolin-4-amine]
≥ 80%: percent control (mortality, anti-feedant effect or growth inhibition) at 200 ppm [1] | percent control (mortality or growth inhibition) at 200 ppm [2] | percent control (mortality, anti-feedant effect or growth inhibition) at 200 ppm [3] | percent control (mortality or growth inhibition) at 200 ppm [4]

CC(c1nccnc1-c1ccc(OC(F)F)cn1)N(C)c1ncnc2c(C(F)(F)F)cc(C(F)(F)F)cc12 (centres unmarked) [P.110, N-[1-[3-[5-(difluoromethoxy)-2-pyridyl]pyrazin-2-yl]ethyl]-N-methyl-6,8-bis(trifluoromethyl)quina-zolin-4-amine]
≥ 80%: percent control (mortality, anti-feedant effect or growth inhibition) at 200 ppm [1] | percent control (mortality or growth inhibition) at 200 ppm [2] | percent control (mortality, anti-feedant effect or growth inhibition) at 200 ppm [3] | percent control (mortality or growth inhibition) at 200 ppm [4]

CC(Nc1ncnc2c(Br)cc(C(F)(F)F)cc12)c1nccnc1-c1ccc(OC(F)F)cn1 (centres unmarked) [P.111, 8-bromo-N-[1-[3-[5-(difluoromethoxy)-2-pyridyl]pyrazin-2-yl]ethyl]-6-(trifluoromethyl)quinazolin-4-amine]
≥ 80%: percent control (mortality, anti-feedant effect or growth inhibition) at 200 ppm [1] | percent control (mortality or growth inhibition) at 200 ppm [2] | percent control (mortality, anti-feedant effect or growth inhibition) at 200 ppm [3] | percent control (mortality or growth inhibition) at 200 ppm [4]

CC(c1nccnc1-c1ccc(OC(F)F)cn1)N(C)c1ncnc2c(Cl)cc(C(F)(F)F)cc12 (centres unmarked) [P.112, 8-chloro-N-[1-[3-[5-(difluroomethoxy)-2-pyridyl]pyrazin-2-yl]ethyl]-N-methyl-6-(trifluoromethyl)quinazolin-4-amine]
≥ 80%: percent control (mortality, anti-feedant effect or growth inhibition) at 200 ppm [1] | percent control (mortality or growth inhibition) at 200 ppm [2] | percent control (mortality, anti-feedant effect or growth inhibition) at 200 ppm [3] | percent control (mortality or growth inhibition) at 200 ppm [4]

CC(Nc1ncnc2c(Cl)cc(C(F)(F)F)cc12)c1nccnc1-c1ccc(OC(F)F)cn1 (centres unmarked) [P.113, 8-chloro-N-[1-[3-[5-(difluoromethoxy)-2-pyridyl]pyrazin-2-yl]ethyl]-6-(trifluoromethyl)quinazolin-4-amine]
≥ 80%: percent control (mortality, anti-feedant effect or growth inhibition) at 200 ppm [1] | percent control (mortality or growth inhibition) at 200 ppm [2] | percent control (mortality, anti-feedant effect or growth inhibition) at 200 ppm [3] | percent control (mortality or growth inhibition) at 200 ppm [4]

CC(c1nccnc1-c1ccc(OC(F)F)cn1)N(C)c1ncnc2c(Br)cc(C(F)(F)F)cc12 (centres unmarked) [P.114, 8-bromo-N-[1-[3-[5-(difluoromethoxy)-2-pyridyl]pyrazin-2-yl]ethyl]-N-methyl-6-(trifluoromethyl)quinazolin-4-amine]
≥ 80%: percent control (mortality, anti-feedant effect or growth inhibition) at 200 ppm [1] | percent control (mortality or growth inhibition) at 200 ppm [2] | percent control (mortality, anti-feedant effect or growth inhibition) at 200 ppm [3] | percent control (mortality or growth inhibition) at 200 ppm [4]
